Measured values as given in ChEMBL document CHEMBL5385899, “Design, synthesis, spectroscopic characterization, single crystal X-ray analysis, in vitro α-amylase inhibition assay, DPPH free radical evaluation and computational studies of naphtho[2,3-d]imidazole-4,9-dione appended 1,2,3-triazoles” (Eur J Med Chem, 2023).
Converted amounts (≈) assume the structure as drawn.

Legend:
Alpha amylase = molecular target: T1, Alpha amylase (Homo sapiens, UniProt P0DUB6); experiment: Inhibition of alpha amylase (unknown origin) using starch as substrate preincubated for 30 mins followed by substrate addition and measured after 30 mins by absorbance based analysis
T1 sequence (P0DUB6 whole entry): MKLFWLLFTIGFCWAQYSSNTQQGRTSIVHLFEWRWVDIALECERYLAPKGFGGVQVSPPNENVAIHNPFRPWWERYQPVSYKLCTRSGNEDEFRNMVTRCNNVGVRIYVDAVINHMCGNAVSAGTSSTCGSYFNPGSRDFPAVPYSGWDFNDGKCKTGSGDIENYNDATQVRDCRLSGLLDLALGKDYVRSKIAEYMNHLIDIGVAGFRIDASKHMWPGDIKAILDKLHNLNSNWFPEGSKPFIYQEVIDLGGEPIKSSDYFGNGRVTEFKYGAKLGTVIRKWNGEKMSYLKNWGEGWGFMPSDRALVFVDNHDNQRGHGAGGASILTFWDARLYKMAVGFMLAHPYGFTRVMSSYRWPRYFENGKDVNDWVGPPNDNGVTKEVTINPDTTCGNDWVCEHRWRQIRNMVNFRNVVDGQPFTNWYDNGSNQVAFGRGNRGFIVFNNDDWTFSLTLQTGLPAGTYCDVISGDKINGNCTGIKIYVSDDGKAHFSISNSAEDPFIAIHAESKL

[1] = Antioxidant activity assessed as DPPH radical scavenging activity incubated for 30 mins under dark condition; assay type: functional

IC50 (Alpha amylase) [µg/mL]	IC50 [1] [µg/mL]	SMILES
20.24 (≈ 37.7 µM)	10.07 (≈ 18.8 µM)	COc1ccc(-c2nc3c(n2Cc2cn(-c4ccc([N+](=O)[O-])cc4)nn2)C(=O)c2ccccc2C3=O)c(OC)c1
19.87 (≈ 41.4 µM)	10.84 (≈ 22.6 µM)	COc1ccc(-n2cc(Cn3c(-c4ccc(F)cc4)nc4c3C(=O)c3ccccc3C4=O)nn2)cc1
18.11 (≈ 32 µM)	10.1 (≈ 17.8 µM)	COc1ccc(-c2nc3c(n2Cc2cn(-c4ccc([N+](=O)[O-])cc4)nn2)C(=O)c2ccccc2C3=O)c(OC)c1OC
19.72 (≈ 45.9 µM)	9.41 (≈ 21.9 µM)	CCCCn1cc(Cn2c(-c3ccc(F)cc3)nc3c2C(=O)c2ccccc2C3=O)nn1
23.94 (≈ 44.4 µM)	10.41 (≈ 19.3 µM)	COc1ccc(-c2nc3c(n2Cc2cn(-c4ccc(F)cc4)nn2)C(=O)c2ccccc2C3=O)c(OC)c1OC
20.73 (≈ 44.9 µM)	10.15 (≈ 22 µM)	COc1ccc(-c2nc3c(n2Cc2cn(-c4ccccc4)nn2)C(=O)c2ccccc2C3=O)cc1
–	9.41 (≈ 42.7 µM)	Cc1cc(C(C)(C)C)c(O)c(C(C)(C)C)c1 [BUTYLATED HYDROXYTOLUENE]
26.01 (≈ 57.9 µM)	10.32 (≈ 23 µM)	O=C1c2ccccc2C(=O)c2c1nc(-c1ccc(F)cc1)n2Cc1cn(-c2ccccc2)nn1
24.08 (≈ 52 µM)	9.61 (≈ 20.7 µM)	Cc1ccc(-n2cc(Cn3c(-c4ccc(F)cc4)nc4c3C(=O)c3ccccc3C4=O)nn2)cc1
23.81 (≈ 46.7 µM)	9.92 (≈ 19.5 µM)	COc1ccc(-c2nc3c(n2Cc2cn(-c4ccc(F)cc4)nn2)C(=O)c2ccccc2C3=O)c(OC)c1
22.87 (≈ 42.7 µM)	10.19 (≈ 19 µM)	COc1ccc(-c2nc3c(n2Cc2cn(-c4ccc(C)cc4)nn2)C(=O)c2ccccc2C3=O)c(OC)c1OC
18.63 (≈ 37.7 µM)	9.69 (≈ 19.6 µM)	O=C1c2ccccc2C(=O)c2c1nc(-c1ccc(F)cc1)n2Cc1cn(-c2ccc([N+](=O)[O-])cc2)nn1
24.19 (≈ 50.5 µM)	10.58 (≈ 22.1 µM)	COc1ccc(-c2nc3c(n2Cc2cn(-c4ccc(F)cc4)nn2)C(=O)c2ccccc2C3=O)cc1
24.25 (≈ 54.9 µM)	10.76 (≈ 24.4 µM)	CCCCn1cc(Cn2c(-c3ccc(OC)cc3)nc3c2C(=O)c2ccccc2C3=O)nn1
23.49 (≈ 46.8 µM)	9.23 (≈ 18.4 µM)	CCCCn1cc(Cn2c(-c3ccc(OC)c(OC)c3OC)nc3c2C(=O)c2ccccc2C3=O)nn1
18.62 (≈ 36.8 µM)	10.88 (≈ 21.5 µM)	COc1ccc(-c2nc3c(n2Cc2cn(-c4ccc([N+](=O)[O-])cc4)nn2)C(=O)c2ccccc2C3=O)cc1

IC50 (Alpha amylase) [µg/mL]	IC50 [1] [µg/mL]	SMILES
25.07 (≈ 54.3 µM)	10.05 (≈ 21.8 µM)	COc1cccc(-c2nc3c(n2Cc2cn(-c4ccccc4)nn2)C(=O)c2ccccc2C3=O)c1
24.58 (≈ 51.7 µM)	10.14 (≈ 21.3 µM)	COc1ccc(-c2nc3c(n2Cc2cn(-c4ccc(C)cc4)nn2)C(=O)c2ccccc2C3=O)cc1
22.04 (≈ 47.2 µM)	9.57 (≈ 20.5 µM)	O=C1c2ccccc2C(=O)c2c1nc(-c1ccc(F)cc1)n2Cc1cn(-c2ccc(F)cc2)nn1
22.73 (≈ 46.2 µM)	9.8 (≈ 19.9 µM)	COc1ccc(-n2cc(Cn3c(-c4cccc(OC)c4)nc4c3C(=O)c3ccccc3C4=O)nn2)cc1
21.11 (≈ 47.8 µM)	9.82 (≈ 22.2 µM)	CCCCn1cc(Cn2c(-c3cccc(OC)c3)nc3c2C(=O)c2ccccc2C3=O)nn1
17.83 (≈ 32.3 µM)	8.99 (≈ 16.3 µM)	COc1ccc(-n2cc(Cn3c(-c4ccc(OC)c(OC)c4OC)nc4c3C(=O)c3ccccc3C4=O)nn2)cc1
21.18 (≈ 41.8 µM)	9.2 (≈ 18.2 µM)	COc1cccc(-c2nc3c(n2Cc2cn(-c4ccc([N+](=O)[O-])cc4)nn2)C(=O)c2ccccc2C3=O)c1
25.44 (≈ 51.8 µM)	11.09 (≈ 22.6 µM)	COc1ccc(-c2nc3c(n2Cc2cn(-c4ccccc4)nn2)C(=O)c2ccccc2C3=O)c(OC)c1
18.41 (≈ 38.4 µM)	9.3 (≈ 19.4 µM)	COc1cccc(-c2nc3c(n2Cc2cn(-c4ccc(F)cc4)nn2)C(=O)c2ccccc2C3=O)c1
21.71 (≈ 42.9 µM)	11.19 (≈ 22.1 µM)	COc1ccc(-c2nc3c(n2Cc2cn(-c4ccc(C)cc4)nn2)C(=O)c2ccccc2C3=O)c(OC)c1
20.64 (≈ 43.8 µM)	10.26 (≈ 21.8 µM)	CCCCn1cc(Cn2c(-c3ccc(OC)cc3OC)nc3c2C(=O)c2ccccc2C3=O)nn1
18.51 (≈ 35.5 µM)	9.63 (≈ 18.5 µM)	COc1ccc(-c2nc3c(n2Cc2cn(-c4ccccc4)nn2)C(=O)c2ccccc2C3=O)c(OC)c1OC
25.49 (≈ 51.9 µM)	9.55 (≈ 19.4 µM)	COc1ccc(-c2nc3c(n2Cc2cn(-c4ccc(OC)cc4)nn2)C(=O)c2ccccc2C3=O)cc1
18.42 (≈ 38.7 µM)	9.5 (≈ 20 µM)	COc1cccc(-c2nc3c(n2Cc2cn(-c4ccc(C)cc4)nn2)C(=O)c2ccccc2C3=O)c1
19.3 (≈ 37 µM)	10.65 (≈ 20.4 µM)	COc1ccc(-n2cc(Cn3c(-c4ccc(OC)cc4OC)nc4c3C(=O)c3ccccc3C4=O)nn2)cc1
